Entries after “also recorded” stand apart in the source; their conditions may differ.
Columns and labels:
in vivo = experiment: in vivo; parameters: species or system Sprague Dawley rats; conditions: rat
Description: Eighteen male Sprague Dawley rats (Charles River) weighing 217-263 g and aged 8-9 weeks were administered the test article, MGBG as either a single bolus intravenous dose of 1 mg/kg (Group 1) or as a single oral gavage dose of 10 mg/kg. A cohort of three animals was sacrificed via CO2 inhalation anesthesia after final blood collection at each of T=2, 4, 12, 24, 36, and 48 hours post-dose. Dose formulation analysis verified administered dose solutions as within 17% of targeted concentration of 10 mg/kg.
Analysis was performed by LC/MS/MS. Pharmacokinetic analyses were performed on the mean MGBG plasma concentration versus time data using the non-compartmental approach (linear trapezoidal rule for AUC calculations). The WinNonlin sparse sampling tool was used for PK calculations. All samples reported as BLQ (Below the Limit of Quantitation, in plasma 2.50 ng/mL) were changed to 0.00 ng/mL for the purpose of analysis.
Additionally, in rats dosed as above with single oral administration of MGBG at 10 mg/kg, immediately following the plasma sample collection for each cohort (i.e., 2, 4, 12, 24, 36, and 48 hours after dosing), three rats were sacrificed, and spleen and liver tissues collected and flask frozen. […] This is consistent with a selective uptake mechanism for MGBG. Without wishing to be bound by theory, other SAMDC inhibitors which are selectively uptaken by cells may, like MGBG, be useful in the methods and compositions disclosed herein.

[1] = Multi-dose rat pharmacokinetic and tolerability study; type: in vivo, Sprague Dawley rats; conditions: for AUC0-12 / AUC0-24 / Cmax / Tmax: PO twice daily; for fold increase in mean AUCall compared to Study Day 1: repeat twice-daily PO
Description: The purpose of this study was to determine the pharmacokinetic (PK) properties and tolerability of MGBG in rats. Additionally, recovery from any toxic effects was assessed after a seven day non-dosing period.
Three per group of male Sprague Dawley (CD® IGS, Charles River) aged 7-9 weeks and weighing 222.7-252.0 g were administered by oral (PO) gavage, twice daily, at 10, 20, or 30 mg/kg/dose (20, 40, or 60 mg/kg/day) for seven consecutive days. A washout period of seven days followed. Collection of approximately 200 μL of whole blood was collected from the tail vein of all animals in Groups 5, 6, and 7 were bled at six (Day 1), seven (Day 7), or one (Days 9 through 15) time point(s), respectively. Whole blood samples were collected in a lithium heparin microtainer and processed to plasma by centrifugation. Plasma was frozen at −70° C. Pharmacokinetic analyses were performed on the individual animal plasma concentration versus time data for MGBG using WinNonlin (linear trapezoidal rule for AUC calculations). Nominal dose values and sampling times were used for calculations. For Study Day 7, the reported values for MGBG concentrations at time zero were used in the calculations of AUC. Study Day 1 disposition parameters were not reported due to insufficient terminal phase data to adequately characterize these parameters.

CNS-infiltrating cells = experiment: Second MOG EAE protocol, flow cytometric analysis of CNS-infiltrating cells; type: in vivo, C57BL/6 mice; conditions: second study
Description: A second EAE experiment was run substantially as disclosed above, except that fingolimod was dosed at 1 mpk QD, and the pertussis toxin was administered at 165 ng/dose for both injections.
In addition to clinical scoring, flow cytometric analysis was performed on CNS-infiltrating cells from 6 mice in each of the vehicle-, fingolimod- and MGBG-treated groups, as well as in all three mice from the mock-immunized (disease-free) group.
On Day 28, the brain and spinal cord tissue (from 6 of 12 mice from each of the MOG-immunized groups; and from all 3 mice from the mock-immunized group) in the second MOG EAE study were […] infiltrating cells were isolated by Percoll gradient. After isolating infiltrating cells from each mouse separately, cells were placed in culture with phorbol myristate acetate (PMA, 50 ng/mL), ionomycin (0.5 μg/mL) and brefeldin (1 μg/mL) and incubated for 4-5 hours. The cells were then washed and stained for flow cytometric analysis, as specified below. The following analyses were performed (Becton Dickinson FACScan):
Anti-CD4-Cy-5/anti-IL-17A-PE/anti-IFNγ-FITC (Th1/Th17 cells)
Anti-CD4-Cy-5/anti-CD11c-PE/anti-CD45.2-FITC (infiltrating dendritic cells)
Anti-CD11b-Cy-5/anti-IL-12-PE/anti-CD45.2-FITC (M1 macrophages)
Anti-CD11b-Cy-5/anti-CD206-PE/anti-IL-10-FITC (M2 macrophages)
The number of cells positive for relevant stains and stain combinations was computed both as a percentage of the analyzed cells and as the average number of cells per mouse for each group.

[2] = male, Sprague Dawley, iv, 1 mg/kg
[3] = male, Sprague Dawley, po, 10 mg/kg
[4] = Day 28, raw numbers of cells, fingolimod 1 mg/kg QD, MGBG 30 mg/kg BID
[5] = Day 28, fingolimod 1 mg/kg QD, MGBG 30 mg/kg BID

Which results are given for CC(/C=N/NC(=N)N)=N\NC(=N)N [MGBG, 1,1′ [methylethanediylidene]dinitrilodiguanidine]?
Clobs (in vivo; [2]): 13.4 mL/min/kg; VSSobs (in vivo; [2]): 15.4 L/kg; Clobs (in vivo; [3]): 3.18 mL/min/kg; Vd (in vivo; [3]): 15.4 L/kg; time point through which MGBG levels were measurable in plasma (in vivo; [3]): 12 h; Kp (in vivo; male, Sprague Dawley, po, 10 mg/kg, greater exposure (AUCall) of liver tissue compared to plasma): 160; Kp (in vivo; male, Sprague Dawley, po, 10 mg/kg, greater exposure (AUCall) of spleen tissue compared to plasma): 9.3; Kp (in vivo; male, Sprague Dawley, po, 10 mg/kg, greater exposure (Cmax) of liver tissue compared to plasma): 120; Kp (in vivo; male, Sprague Dawley, po, 10 mg/kg, greater exposure (Cmax) of spleen tissue compared to plasma): 4; clinical findings after dosing (in vivo): Abnormal clinical findings were not noted; hematology differences versus control group ([1]; 60 mg/kg/day dose group, not thought to be adverse): lower reticulocyte count and percentage; gross or microscopic lesions at terminal sacrifice ([1]; PO twice daily 7 days, 20-60 mg/kg/day): No gross or microscopic lesions; AUC0-12 ([1]; 20 mg/kg/day, Day 7): 1030 ng·h/mL; AUC0-24 ([1]; 20 mg/kg/day, Day 7): 2190 ng·h/mL; Cmax ([1]; 20 mg/kg/day, Day 7): 117 ng/mL; Tmax ([1]; 20 mg/kg/day, Day 7): 14 h; AUC0-12 ([1]; 40 mg/kg/day, Day 7): 1800 ng·h/mL; AUC0-24 ([1]; 40 mg/kg/day, Day 7): 3690 ng·h/mL; Cmax ([1]; 40 mg/kg/day, Day 7): 194 ng/mL; Tmax ([1]; 40 mg/kg/day, Day 7): 9.33 h; Tmax ([1]; 60 mg/kg/day, Day 1): 3.33 h; AUC0-12 ([1]; 60 mg/kg/day, Day 7): 3130 ng·h/mL; AUC0-24 ([1]; 60 mg/kg/day, Day 7): 6040 ng·h/mL; Cmax ([1]; 60 mg/kg/day, Day 7): 337 ng/mL; Tmax ([1]; 60 mg/kg/day, Day 7): 7.33 h; fold increase in mean AUCall compared to Study Day 1 ([1]; 20 mg/kg/day): 3.77 fold; fold increase in mean AUCall compared to Study Day 1 ([1]; 40 mg/kg/day): 4.03 fold; fold increase in mean AUCall compared to Study Day 1 ([1]; 60 mg/kg/day): 3.68 fold; CD4+ IFNy+ cells (CNS-infiltrating cells; [4]): 20.40 +/− 10^3; CD4+ IL-17A+ cells (CNS-infiltrating cells; [4]): 23.55 +/− 10^3; CD4+ cells (CNS-infiltrating cells; [4]): 152.11 +/− 10^3; CD11b+ CD206+ cells (CNS-infiltrating cells; [4]): 1.92 +/− 10^3; CD11b+ IL10+ cells (CNS-infiltrating cells; [4]): 3.37 +/− 10^3; CD11b+ cells (CNS-infiltrating cells; [4]): 137.88 +/− 10^3; CD45.2 high CD4− CD11c+ cells (CNS-infiltrating cells; [4]): 11.90 +/− 10^3; CD45.2 high CD11b− IL12+ cells (CNS-infiltrating cells; [4]): 0.21 +/− 10^3; IL12+ cells (CNS-infiltrating cells; [4]): 0.89 +/− 10^3; # of IL12+ cells (10^3) (CNS-infiltrating cells; [5]): 0.89 +/− 10^3; % CD4+ IFNγ+ cells (CNS-infiltrating cells; [5]): 15.85%; % CD11c+ of CD45.2 high CD4− cells (CNS-infiltrating cells; [5]): 7.21%; % CD206+ of CD11b+ cells (CNS-infiltrating cells; [5]): 1.39%; % IL10+ of CD11b+ cells (CNS-infiltrating cells; [5]): 2.37%; % IL12+ of CD45.2 high CD11b− cells (CNS-infiltrating cells; [5]): 0.06%; % IL-17A+ cells of CD4+ cells (CNS-infiltrating cells; [5]): 15.24%; % of CD4+ cells (CNS-infiltrating cells; [5]): 28.50%; % of CD11b+ cells (CNS-infiltrating cells; [5]): 27.86%; CNS CD11c+ dendritic cells (CNS-infiltrating cells; FIG. 8 A): reduces; also recorded: significantly reduced relative and absolute number; IL12+ dendritic cells / IL-12-producing cells (CNS-infiltrating cells; FIG. 8 B): reduces; also recorded: significantly reduced number; Th1 (CNS-infiltrating cells; FIG. 9 A): reduces; M1 macrophages (CNS-infiltrating cells; FIG. 9 B): reduces

Reference: patent publication US10085955B2, “Methods and compositions for treatment of demyelinating diseases” (Pathologica LLC, priority 2013, dated 2018)
